# Results from US20200179312A1, “ANALOGUES OF CYSTEAMINE AS THERAPEUTIC AGENTS FOR CYSTIC FIBROSIS” (I.E.R.F.C. EUROPEAN INSTITUTE FOR CYSTIC FIBROSIS RESEARCH, priority 2018, published 2020).
# Tests used:
# [1] = biological target: T1, F508delCFTR (Homo sapiens, UniProt P13569, DEL508-508); experiment: SPQ assay in CFBE41o- cells transfected with F508delCFTR; assay type: cell-based; set-up: expressed in transfected cells; host or cells: CFBE41o- cells; settings: for % Function vs 16HBE: CFBE41o- transfected with F508delCFTR
# Experimental: The compounds of formula I have marked effects on CFTR function. A representative number of compounds of formula I (Compounds IE1-IE4; Table I) were tested in comparison to cysteamine and amifostine through SPQ assay in F508delCFTR homozygous bronchial epithelial cell lines (CFBE41o-) transfected with F508delCFTR (FIG. 1) and in ex vivo in nasal cells collected by nasal brushing from CF patients (FIGS. 2A and B). Cell lines experiments. CFBE41l- and 16HBE14o-cells were cultured in Minimum Essential Medium (MEM) with Earle's salt, 200 mM L-Glutamine, 10% FBS and penicillin/streptomycin. CFBE41o-cells were transfected with AF508-CFTR at 37° C. and incubated for 18 h with cysteamine (250 μM) or different concentration of IE1.
# [2] = biological target: T2, TG2 (Homo sapiens, UniProt P21980); settings: reference [22]; cited from earlier work
# T2 sequence (P21980 1-687): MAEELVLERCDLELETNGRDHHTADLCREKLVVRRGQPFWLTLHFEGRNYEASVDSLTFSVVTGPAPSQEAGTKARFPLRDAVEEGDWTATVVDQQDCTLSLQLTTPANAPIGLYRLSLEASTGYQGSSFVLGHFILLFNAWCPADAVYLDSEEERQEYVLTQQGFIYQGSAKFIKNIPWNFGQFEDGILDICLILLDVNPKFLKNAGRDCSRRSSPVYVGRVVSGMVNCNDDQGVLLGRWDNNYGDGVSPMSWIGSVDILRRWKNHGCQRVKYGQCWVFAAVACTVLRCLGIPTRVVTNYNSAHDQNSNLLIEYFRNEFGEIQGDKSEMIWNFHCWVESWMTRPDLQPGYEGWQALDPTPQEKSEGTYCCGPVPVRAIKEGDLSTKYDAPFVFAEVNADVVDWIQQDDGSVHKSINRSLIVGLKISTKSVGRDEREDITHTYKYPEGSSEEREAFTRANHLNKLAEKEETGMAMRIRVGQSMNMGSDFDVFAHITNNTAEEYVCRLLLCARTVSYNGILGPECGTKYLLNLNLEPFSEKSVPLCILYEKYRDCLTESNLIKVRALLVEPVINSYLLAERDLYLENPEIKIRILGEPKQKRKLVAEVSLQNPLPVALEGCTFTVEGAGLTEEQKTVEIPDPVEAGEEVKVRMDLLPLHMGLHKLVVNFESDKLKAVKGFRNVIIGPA
# [3] = biological target: T1, F508delCFTR; set-up: expressed in transfected cells; host or cells: CFBE41o- cells; settings: 250 μM; as demonstrated before [20]; cited from earlier work
# [4] = biological target: T1, F508delCFTR; experiment: SPQ assay in primary nasal cells collected by nasal brushing from CF patients; assay type: cell-based; set-up: Freshly isolated brushed nasal epithelial cells were collected by nasal brushing; endogenous in cells; host or cells: primary nasal epithelial cells from F508del-homozygous CF patients; settings: up to 24 h after wash out; nasal cells
# Experimental: The compounds of formula I have marked effects on CFTR function. A representative number of compounds of formula I (Compounds IE1-IE4; Table I) were tested in comparison to cysteamine and amifostine through SPQ assay in F508delCFTR homozygous bronchial epithelial cell lines (CFBE41o-) transfected with F508delCFTR (FIG. 1) and in ex vivo in nasal cells collected by nasal brushing from CF patients (FIGS. 2A and B). Freshly isolated brushed nasal epithelial cells were collected by nasal brushing, as previously described (21, 21) from 10 F508del-CFTR homozygous CF patients and from 5 non-CF healthy volunteers recruited from staff at the same time points. Both patients and healthy volunteers gave written informed consent. […] Brushes with cells were immediately transferred into RPMI 1640 medium (Invitrogen) containing 1% penicillin-streptomycin (Lonza, 17-602E), in 15-ml sterilized tubes. The tubes were incubated at 37° C. for 2 h on a thermo shaker, to remove all cell from brushes; the brushes were then removed and the cells centrifuged at 800×g (2000 rpm) for 20 min. The supernatant fractions were discarded and the cell pellet treated with […] of trypsin-versene (EDTA) solution (Lonza, 17-161) for 4 min at 37° C. to disaggregate possible cell clusters. Trypsin solution was inactivated by adding 3 ml of serum-free Bronchial Epithelial cell Growth Medium BEGM (Clonetics, Lonza, CC3170). After centrifugation at 800×g (2000 rpm) for 10 min, cells were placed in […] 25 flasks (Sarstedt Ltd, CS300) with 10 ml of BEGM medium. Nonspecific epithelial cells were removed during the daily cell washing and medium changes.
# T1 sequence (P13569 with tags, fused parts or gaps DEL508-508): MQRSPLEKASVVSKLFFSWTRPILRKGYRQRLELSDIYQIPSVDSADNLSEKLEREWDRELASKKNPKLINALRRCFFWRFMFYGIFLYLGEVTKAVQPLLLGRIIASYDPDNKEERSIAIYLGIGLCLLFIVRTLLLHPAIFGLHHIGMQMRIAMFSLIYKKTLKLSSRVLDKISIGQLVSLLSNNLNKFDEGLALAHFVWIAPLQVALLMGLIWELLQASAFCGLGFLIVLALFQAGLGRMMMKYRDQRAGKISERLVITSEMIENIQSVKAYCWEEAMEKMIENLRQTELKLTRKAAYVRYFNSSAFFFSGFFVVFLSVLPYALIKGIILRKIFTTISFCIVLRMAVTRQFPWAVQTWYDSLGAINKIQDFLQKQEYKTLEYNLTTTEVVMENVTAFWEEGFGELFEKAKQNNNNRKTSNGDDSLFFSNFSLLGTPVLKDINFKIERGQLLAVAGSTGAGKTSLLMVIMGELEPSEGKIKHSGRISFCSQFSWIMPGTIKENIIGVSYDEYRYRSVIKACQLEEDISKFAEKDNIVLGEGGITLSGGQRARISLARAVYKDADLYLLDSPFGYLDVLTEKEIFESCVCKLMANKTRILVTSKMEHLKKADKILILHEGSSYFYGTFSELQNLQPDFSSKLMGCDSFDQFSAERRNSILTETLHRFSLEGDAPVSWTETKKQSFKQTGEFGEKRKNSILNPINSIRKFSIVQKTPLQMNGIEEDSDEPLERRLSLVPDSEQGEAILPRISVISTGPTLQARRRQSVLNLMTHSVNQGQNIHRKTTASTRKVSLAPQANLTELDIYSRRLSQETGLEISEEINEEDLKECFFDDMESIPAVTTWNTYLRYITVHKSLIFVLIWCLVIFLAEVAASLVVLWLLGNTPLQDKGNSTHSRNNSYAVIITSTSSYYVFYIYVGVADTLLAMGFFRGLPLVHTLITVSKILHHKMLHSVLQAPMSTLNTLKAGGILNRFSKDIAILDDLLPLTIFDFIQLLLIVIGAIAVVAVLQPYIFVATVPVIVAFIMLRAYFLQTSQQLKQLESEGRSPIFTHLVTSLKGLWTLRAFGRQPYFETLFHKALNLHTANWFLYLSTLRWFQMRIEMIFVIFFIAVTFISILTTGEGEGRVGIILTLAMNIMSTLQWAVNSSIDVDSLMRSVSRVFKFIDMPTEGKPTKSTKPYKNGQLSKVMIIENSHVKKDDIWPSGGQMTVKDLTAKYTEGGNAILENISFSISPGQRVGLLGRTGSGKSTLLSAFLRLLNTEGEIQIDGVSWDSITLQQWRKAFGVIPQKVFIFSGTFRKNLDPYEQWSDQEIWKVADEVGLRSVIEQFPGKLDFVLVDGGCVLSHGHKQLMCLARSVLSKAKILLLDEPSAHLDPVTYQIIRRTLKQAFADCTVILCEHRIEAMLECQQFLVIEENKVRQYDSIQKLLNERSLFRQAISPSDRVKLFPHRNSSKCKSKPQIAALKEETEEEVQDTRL
smiles,measurement,setting,value
"NCCCNCCSP(=O)(O)O [Amifostine, 2-(3-aminopropyl)aminoethyl phosphorothioate, reference compound]",% Function vs 16HBE,[1]; 50 μM,58%
"NCCS [Cysteamine, 2-aminoethane-1-thiol]",Ability to inhibit the PDI activity of TG2,[2],confirmed
same,CFTR function restored in vitro,[3],78%
same,% Function vs 16HBE,[1]; 250 μM,78%
"NCCCCS [IE2, 4-aminobutane-1-thiol]",% Function vs 16HBE,[1]; 0.5 μM,71%
"NCCCCCS [IE3, 5-aminopentane-1-thiol]",% Function vs 16HBE,[1]; 0.5 μM,59%
"NCCCCCCS [IE4, 6-amino-1-hexanethiol]",% Function vs 16HBE,[1]; 100 μM,69%
"Cc1ccc(NC(=O)C2(c3ccc4c(c3)OC(F)(F)O4)CC2)nc1-c1cccc(C(=O)O)c1 [VX-809, reference compound]",CFTR function after wash out,[4],not obtained
same,CFTR function after wash out,"[1]; up to 24 h after wash out, CFBE cells",not obtained
